The values below come from US20220041641A1, “QUATERNARY AMMONIUM SALTS AS INHIBITORS OF TRIMETHYLAMINE PRODUCTION” (Senda Biosciences, Inc., priority 2018, published 2022).

Counter-ions that a name gives are not always drawn.

A short description of data set [1]: Pharmacokinetic study of colon contents and plasma after oral dose of conjugate. The format is in vivo, male C57B3L/6 mice. The settings on record: for Cmax: male. On the procedure:
To confirm that the active agent component of the conjugate is released in the gastrointestinal tract, a pharmacokinetic study was conducted in male C57B3L/6 mice examining conjugate and active agent of concentrations in both the colon contents and plasma after oral dose of conjugate. Conjugate and active agent of were quantified by LCMS at 0 (pre-dose), 0.25, 0.5, 1, 2, 4, 6, 8, 12, and 24 hours post-dose of compound.

A short description of a further data set: in vivo. Conditions: Sprague-Dawley, rat. The arrangement: species or system Sprague-Dawley rats. On the procedure:
Sprague-Dawley rats (three rats per compound) were treated with a single intravenous (IV) 1 mg/kg dose or orally (PO) a single 10 mg/kg dose. Plasma concentrations of the conjugates were determined by LCMS at 5 minutes, 15 minutes, 30 minutes, 1 hour, 2 hours, 4 hours, 8 and 24 hours post compound administration. […] In addition, the plasma exposure and bioavailability of the active agent of was lower when dosed as a conjugate instead of the active agent alone.

Data set [2] is classed as in vitro ADME. The settings on record: simulated gi fluid, 1 µM, pH 6.7. On the procedure: This assay was used to assess the stability of a conjugate in a small intestine.
Phosphate buffer was prepared by dissolving 0.42 g of sodium hydroxide pellets and 3.95 g of monobasic sodium phosphate monohydrate and 6.19 g of sodium chloride in ultrapure water (MilliQ®, Millipore Sigma, Darmstadt, Germany). The pH was adjusted to 6.7 using aq. HCl and aq. NaOH, as necessary, and the solution was diluted with ultrapure water to produce 1 L of the pH 6.7 buffer.
112 mg FaSSIF powder (Biorelevant™, London, UK) was dissolved in 50 mL of the pH 6.7 buffer. 2 to 3 mL of the resulting solution were then added to 500 mg pancreatin (Millipore Sigma, Darmstadt, Germany). The resulting mixture was agitated by finger tapping the vessel containing the mixture until milky suspension formed. At this time, the remainder of the 50 mL FaSSiF/pH 6.7 buffer solution was added. The resulting suspension was flipped upside down 10 times to produce SIF, which was used fresh.
Test compounds were dissolved in DMSO stock to 1 mM. An aliquot of the DMSO stock solution was removed and diluted in the SIF media in 15 mL falcon tubes to produce a mixture with a tested compound concentration of 1 μM. A 1 mL aliquot was immediately removed and diluted once with 1 volume of acetonitrile for T0 timepoint. The mixture was sealed and agitated at 37° C. in an incubator. Aliquots (1 mL) were removed at regular intervals and immediately quenched by the addition of 1 volume of acetonitrile. The resulting samples were analyzed by LCMS to determine degradation rates.

Another data set concerns CutC/D enzyme. Briefly: Acute mouse model (plasma TMAO on choline diet). The format is in vivo, male C57BL/6 mice. The procedure, abridged: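 Male C57BL/6 mice fed a diet with 1.0% choline (g/g) received compound in water by oral gavage once daily on days 1–3. Plasma taken 20 h after the last dose was protein-precipitated and TMAO quantified by LC-MS/MS against a 0.05-100 μM d9-TMAO calibration curve in control plasma.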

Data set [3] is classed as in vitro ADME. Conditions: simulated gi fluid, 1 µM, pH 1.6. The protocol:
This assay was used to assess the stability of a conjugate in a stomach.
Medium was prepared by dissolving 2 g of sodium chloride in 0.6 L in ultrapure water (MilliQ®, Millipore Sigma, Darmstadt, Germany). The pH was adjusted to 1.6 with 1N hydrochloric acid, and the volume was then adjusted to 1 L with purified water.
60 mg FaSSIF powder (Biorelevant™, London, UK) were dissolved in 500 mL buffer (above). Pepsin was added (0.1 mg/mL) (Millipore Sigma, Darmstadt, Germany), and the solution was stirred. The resulting SGF media were used fresh for each experiment.
Test compounds were dissolved in DMSO stock to 1 mM. An aliquot of the DMSO stock solution was removed and diluted in the SGF Media in 15 mL falcon tubes to generate a total compound concentration of 1 μM. A 1 mL aliquot was immediately removed and diluted once with 1 volume of acetonitrile for T0 timepoint. The mixture was sealed and mixed at 37° C. in an incubator. Aliquots (1 mL) were removed at regular intervals and immediately quenched by the addition of 1 volume of acetonitrile. The resulting samples were analyzed by LCMS to determine degradation rates in SGF.

Data set [4] is classed as in vitro ADME. The settings on record: 1 µM. The protocol:
This assay was used to assess the stability of a conjugate in a large intestine.
All experiments were performed in an anaerobic chamber containing 90% nitrogen, 5% hydrogen and 5% carbon dioxide. Colonic material was resuspended as a slurry (15% w/v final concentration) in pre-reduced, anaerobically sterilized dilution blanks (Anaerobe Systems AS-908). The colonic material was then inoculated into 96 well plates containing YCFAC media (Anaerobe Systems AS-680, 6.7 μL slurry into 1 mL total media). A compound was added to each individual well to reach a final analyte concentration of 1 μM, and the material was mixed by pipetting. Each sample was removed after set timepoints (0, 120, 240, 480, 1440, 2880 minutes after initiation of the assay), quenched with acetonitrile containing internal standard, and analyzed by LCMS.

Data set [5] addresses CutC from Proteus mirabilis (Proteus mirabilis, UniProt B4EYG1). Briefly: Cell-based assay for TMA production from a native producer (P. mirabilis). Conditions: d9-TMA from 1 mM d9-choline, 5 h, 37° C.; value 10 given when no fit or % TMA remaining at 10 μM higher than 15%; read-out: Average IC50 Whole cell P. mirabilis. The procedure, abridged:
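Overnight anaerobic cultures of P. mirabilis or C. sporogenes, grown in BHI with 1 mM choline, were diluted and given 1 mM (trimethyl-d9)-choline plus compound at 10 μM final. After 5 h at 37° C., d9-TMA was quantified by LCMS.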

Chain of CutC from Proteus mirabilis (B4EYG1 entry or part of it): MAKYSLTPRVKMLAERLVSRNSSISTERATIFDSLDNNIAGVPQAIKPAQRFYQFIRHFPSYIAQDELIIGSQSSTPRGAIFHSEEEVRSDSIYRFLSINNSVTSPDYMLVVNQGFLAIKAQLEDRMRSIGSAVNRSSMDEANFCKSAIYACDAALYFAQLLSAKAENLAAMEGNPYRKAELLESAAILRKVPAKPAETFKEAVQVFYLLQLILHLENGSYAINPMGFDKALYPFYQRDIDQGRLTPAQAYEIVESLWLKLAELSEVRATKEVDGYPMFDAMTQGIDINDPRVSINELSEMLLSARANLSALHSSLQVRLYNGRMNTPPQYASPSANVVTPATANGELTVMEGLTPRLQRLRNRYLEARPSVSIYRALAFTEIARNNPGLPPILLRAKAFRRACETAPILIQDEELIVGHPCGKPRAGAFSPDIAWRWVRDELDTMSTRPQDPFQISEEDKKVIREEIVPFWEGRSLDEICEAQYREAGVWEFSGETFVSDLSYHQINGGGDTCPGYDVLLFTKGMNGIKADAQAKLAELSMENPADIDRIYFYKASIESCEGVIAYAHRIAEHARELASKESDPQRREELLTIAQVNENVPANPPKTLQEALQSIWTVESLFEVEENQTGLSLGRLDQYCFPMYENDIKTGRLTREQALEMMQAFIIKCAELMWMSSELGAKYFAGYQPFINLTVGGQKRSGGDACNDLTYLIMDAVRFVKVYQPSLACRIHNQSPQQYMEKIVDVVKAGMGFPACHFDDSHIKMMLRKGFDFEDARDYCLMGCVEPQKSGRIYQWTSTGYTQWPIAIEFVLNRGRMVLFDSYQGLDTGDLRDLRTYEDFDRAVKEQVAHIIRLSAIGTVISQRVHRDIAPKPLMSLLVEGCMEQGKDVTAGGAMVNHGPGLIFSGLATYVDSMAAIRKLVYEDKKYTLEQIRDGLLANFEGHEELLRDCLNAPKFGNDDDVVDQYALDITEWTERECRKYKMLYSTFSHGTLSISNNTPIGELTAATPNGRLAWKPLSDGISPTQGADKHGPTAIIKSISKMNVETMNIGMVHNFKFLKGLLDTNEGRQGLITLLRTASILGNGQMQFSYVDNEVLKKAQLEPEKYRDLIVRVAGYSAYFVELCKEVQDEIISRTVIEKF
Chain of CutC from Proteus mirabilis (B4EYG0 entry or part of it, further chain): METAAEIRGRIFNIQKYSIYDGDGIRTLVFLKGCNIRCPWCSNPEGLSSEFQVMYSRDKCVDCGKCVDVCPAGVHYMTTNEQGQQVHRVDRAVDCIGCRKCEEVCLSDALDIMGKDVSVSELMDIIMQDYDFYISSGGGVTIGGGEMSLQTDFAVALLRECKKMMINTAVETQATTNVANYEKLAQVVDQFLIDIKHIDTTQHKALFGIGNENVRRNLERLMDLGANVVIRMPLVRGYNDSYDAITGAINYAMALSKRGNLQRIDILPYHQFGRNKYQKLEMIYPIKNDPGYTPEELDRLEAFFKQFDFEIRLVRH

In data set [1] (C57B3L/6, mouse, in vivo, po), `CC(=O)OCC1OC(OCC[N+](C)(C)CCl)C(OC(C)=O)C(OC(C)=O)C1OC(C)=O.[I-]` (stereo in doubt) [Compound 78, N-(chloromethyl)-N,N-dimethyl-2-(((2S,3S,4R,5S,6S)-3,4,5-triacetoxy-6-(acetoxymethyl)tetrahydro-2H-pyran-2-yl)oxy)ethan-1-aminium Iodide] returned a Cmax of 70 nM. Moreover, the “Plasma Cmax” value in data set [1] (mouse, in vivo, po) is “Not”. For the same compound, the peak level in the data set “in vivo” (iv, 1 mg/kg) (Cmax) was 8310 nM. Further, in the data set “in vivo” (po, 10 mg/kg), the “% F” value worked out at 1.91%, the highest concentration (Cmax) worked out at 130 nM and the bioavailability worked out at 0.99%.

For `C#CC[N+](C)(C)CCO[C@@H]1OC[C@@H](OC(C)=O)[C@H](OC(C)=O)[C@H]1OC(C)=O.[I-]` [Compound 8, N,N-dimethyl-N-(2-(((3R,4S,5R)-3,4,5-triacetoxytetrahydro-2H-pyran-2-yl)oxy)ethyl)prop-2-yn-1-aminium iodideiodideiodideiodideiodide], the “Assay 2- FaSSIF Stability: % Remaining at 4 hr” value in data set [2] is reported as 113.28%. Moreover, the “% change from vehicle control + choline diet” value with CutC/D enzyme (Table 4d, 100 mg/kg oral gavage days 1-3) is −33%. The “Mean plasma TMAO” value in the data set on CutC/D enzyme (Table 4d, 100 mg/kg oral gavage days 1-3, plasma 20 h after last gavage) was 12.5 µM. The “Assay 1- FaSSGF Stability: % Remaining at 1 hr” value in data set [3] is reported as 105.93%. The “Assay 3- Colonic Material Stability Assay % Remaining at 24 hr” value in data set [4] is given as 17%. In addition, in data set [5], the IC50 is no less than 10 µM.

As for `C#CC[N+](C)(C)CC(=O)O[C@H]1CO[C@H]2[C@@H]1OC[C@H]2O.O=C([O-])C(F)(F)F` [Compound 70, N-(2-(((3S,3aR,6R,6aR)-6-hydroxyhexahydrofuro[3,2-b]furan-3-yl)oxy)-2-oxoethyl)-N,N-dimethylprop-2-yn-1-aminium trifluoroacetate], the “Assay 2- FaSSIF Stability: % Remaining at 4 hr” value in data set [2] was 28.06%. Moreover, in data set [3], the “Assay 1- FaSSGF Stability: % Remaining at 1 hr” value was 98.36%. Further, the “Assay 3- Colonic Material Stability Assay % Remaining at 24 hr” value in data set [4] worked out at 47%. Besides, in data set [5], the IC50 is no less than 10 µM.

Regarding `Br.C#CC[N+](C)(C)CC(=O)O[C@@H]1CO[C@H]2[C@@H]1OC[C@@H]2O` [Compound 73, N-(2-(((3R,3aR,6S,6aR)-6-hydroxyhexahydrofuro[3,2-b]furan-3-yl)oxy)-2-oxoethyl)-N,N-dimethylprop-2-yn-1-aminium bromide], the “Assay 2- FaSSIF Stability: % Remaining at 4 hr” value in data set [2] was 62.73%. For the same compound, the “Assay 1- FaSSGF Stability: % Remaining at 1 hr” value in data set [3] is on record as 107.49%. Further, the “Assay 3- Colonic Material Stability Assay % Remaining at 24 hr” value in data set [4] is reported as 44%. The IC50 in data set [5] is no less than 10 µM.

In the case of `C#CC[N+](C)(C)CCO[C@H]1CO[C@H]2[C@@H]1OC[C@H]2O` [Compound 74, N-(2-(((3S,3aR,6R,6aR)-6-hydroxyhexahydrofuro[3,2-b]furan-3-yl)oxy)ethyl)-N,N-dimethylprop-2-yn-1-aminium trifluoroacetate], the “Assay 2- FaSSIF Stability: % Remaining at 4 hr” value in data set [2] was 121.56%. Further, the “Assay 1- FaSSGF Stability: % Remaining at 1 hr” value in data set [3] is given as 107.3%. Also, in data set [4], the “Assay 3- Colonic Material Stability Assay % Remaining at 24 hr” value worked out at 99%. Besides, the 50% inhibitory concentration (IC50) in data set [5] is no less than 10 µM.

`C[N+](C)(CF)CCO[C@@H]1O[C@H](CO)[C@@H](O)[C@H](O)[C@H]1O.[Cl-]` [Compound 98, (fluoromethyl)dimethyl(2-{[(2R,3R,4S,5S,6R)-3,4,5-trihydroxy-6-(hydroxymethyl)oxan-2-yl]oxy}ethyl)azanium Chloride]: the “% change from vehicle control + choline diet” value in the data set on CutC/D enzyme (Table 4f, 3.70 mg/kg oral gavage days 1-3) is listed as −8%; in the data set with CutC/D enzyme (Table 4f, 11.0 mg/kg oral gavage days 1-3), 6%; in the data set on CutC/D enzyme (Table 4f, 36.6 mg/kg oral gavage days 1-3) it was −69%. Besides, the “Mean plasma TMAO” value amounted to 29.7 µM in the data set with CutC/D enzyme (Table 4f, 3.70 mg/kg oral gavage days 1-3, plasma 20 h after last gavage); 34.3 µM in the data set with CutC/D enzyme (Table 4f, 11.0 mg/kg oral gavage days 1-3, plasma 20 h after last gavage); 10.1 µM in the data set on CutC/D enzyme (Table 4f, 36.6 mg/kg oral gavage days 1-3, plasma 20 h after last gavage). For the same compound, the Cmax in data set [1] (C57B3L/6, mouse colon contents after oral dose of conjugate, compound measured = conjugate dosed, read-out: Colon Cmax) worked out at 21800 nM; in data set [1] (C57B3L/6, mouse plasma after oral dose of conjugate, compound measured = conjugate dosed, read-out: Plasma Cmax), 1300 nM; in “in vivo” (iv, 1 mg/kg), 23600 nM; in the data set “in vivo” (po, 10 mg/kg), 306 nM. Also, the bioavailability in the data set “in vivo” (po, 10 mg/kg) amounted to 0.72%.

For `C#CC[N+](C)(C)CC(=O)OC[C@H]1OC(OC(C)=O)[C@H](OC(C)=O)[C@@H](OC(C)=O)[C@@H]1OC(C)=O.O=C([O-])C(F)(F)F` (stereo partly drawn) [Compound 304, N,N-dimethyl-N-(2-oxo-2-(((2R,3R,4S,5R)-3,4,5,6-tetraacetoxytetrahydro-2H-pyran-2-yl)methoxy)ethyl)prop-2-yn-1-aminium Trifluoroacetate], in data set [2], the “Assay 2- FaSSIF Stability: % Remaining at 4 hr” value is given as 13.44%. For the same compound, the “Assay 1- FaSSGF Stability: % Remaining at 1 hr” value in data set [3] is given as 114.28%. In addition, the “Assay 3- Colonic Material Stability Assay % Remaining at 24 hr” value in data set [4] came out at 0.94%.

What is called Cmax is the peak of the concentration-time curve. Usually bioavailability stands for the share of a dose that reaches the circulation, judged against a reference dose that is usually intravenous. A higher bioavailability goes with much systemic uptake. Broadly, the IC50 is the point on the concentration scale where inhibition reaches its midpoint.
